Patent US9315544B2, “Method of treating eosinophilia by administering an immunomodulating peptide” (National Tsing Hua University, priority 2012, dated 2016)

Columns and labels:
mouse colon cancer cells = test: Transwell migration assay, mouse colon cancer cells; type: cell-based; details: 5 μM CMP pretreatment 30 min, 18 hours
Experimental: (§1) FIG. 10 illustrates Tumor migration inhibition by CMP. A549, H460 and mouse colon cancer cells were incubated with CMP at 37° C. for 30 min before adding to the top chamber of transwell membranes in 24-well dishes at a density of 2×10^4 cells/well. Data represented the mean±S.E. of triplicate samples from a representative experiment. The experiment was repeated at least three times with similar results
(§2) Cancer cell inhibition by CMP was performed in a 24-well Transwell chamber consisting of a cell culture insert (6.4 mm diameter, 8-1 μm pore polyethylene tetraphtalate membrane, [Becton Dickinson]) set in each well of a 24-well companion plate (Becton Dickinson). Briefly, 3×10^4 cancer cells were suspended and pretreated with 5 and 12.5 μM CMP for 30 min in a total volume of 200 μL. Cell suspensions were inoculated into the upper chamber of an insert, 5% fetal bovine serum (FBS) in medium as a chemoattractant was added to the plate well in the bottom chamber, and incubated for 18 hours in a humidified incubator at 37° C. with 5% CO2. The non-migratory cells on the upper membrane surface were removed with a cotton swab, and the migratory cells attached to the lower membrane surface were fixed with 4% paraformaldehyde and stained with 0.2% crystal violet. The number of migrated cells was counted in four randomly selected high power fields under microscope. […]

CCL-11 = test: Cytokine ELISA of lung protein extract (CCL-11); type: in vivo, BALB/c mouse; details: eIN+mIT, mIT+eIN and eIN+mIT+eIN groups
Text: (§3) FIG. 4 illustrates experimental design. All groups except control group were immunized with mite crude extract allergen on days 1 and 8, then mite crude extract allergen intratracheally on day 15 in all mite treated group, BALB/c mouse were divided into six groups (1) control group (PBS), (2) mites delivered intratracheally (mIT, mite on day 15) alone, (3) CMP intranasal (eIN, CMP on days 1 to 22) alone, (4) preventive-treatment group (eIN+mIT, CMP on days 1 to 14, mite on day 15) (5) therapy-treatment group (mIT+eIN, mite on day 15, CMP on days 15 to 22), and (6) preventive- and therapeutic-treatment group (eIN+mIT+eIN, CMP on days 1 to 22, mite on day 15).
(§4) FIG. 9 illustrates inhibitory effect of CMP on lung protein extract. Lung protein extracts from different groups of mouse were assayed for the indicated cytokines. Data represent one of three independent experiments. Levels of CCL-11, IL-5, IL-13 and IL-17A/F levels in lung protein extracts from mouse from treatment groups were measured by Enzyme-linked immunosorbent assay (ELISA). Each result was expressed as the mean±S.D., n=4. **, P<0.01, ***, P<0.001. […]
(§5) Levels of cytokines from lung protein extract were measured by ELISA. […] The microplates were read at 450 nm with an ELISA reader (Thermo Labsystems, Waltham, Mass., USA). […]

human lung cancer H460 = test: Transwell migration assay, H460; type: cell-based; details: 12.5 μM CMP pretreatment 30 min, 18 hours
Experimental: as §1, §2

IL-13 = test: Cytokine ELISA of lung protein extract (IL-13); type: in vivo, BALB/c mouse; details: eIN+mIT, mIT+eIN and eIN+mIT+eIN groups
Text: as §3, §4, §5

For NYRWRCKNQN (CMP), the “decrease of migration activity” value (mouse colon cancer cells) was 60%, the “CCL-11 in lung protein extract compared with mIT group” value (CCL-11) was “lower concentrations” and the “decrease of migration activity” value (human lung cancer H460) was 50%. For the same sequence, the “IL-13 in lung protein extract compared with mIT group” value (IL-13) was “lower concentrations”.
